Tested on: female db/db mice
Experiment: blood sugar level depressing activity in dd/db mice
Assay type: in vivo
Conditions: dose 10 mg/kg, drug mixed with powder diet, given for 14 days, difference between db/db control group and +/+ mice taken as 100%
Method: (blood sugar level depressing activity in dd/db mice)
Female C57BL/KsJ-dbm db+/db+, C57BL/KsJ-dbm +m/+m (Jackson Laboratory) mice (5 weeks old) were purchased and subjected to the test after 2-3 weeks of acclimating period.
The test drug was mixed with a powder diet (CE-2, Clea Japan, Inc.) in a mortar. In the case of administration in 100 mg/kg, the mixing proportion of the test drug to the diet was 0.1%, in the case of 30 mg/kg, the proportion was 0.03% and in the case of 10 mg/kg, the proportion was 0.01%. The diet was changed twice a week. The amount of the diet given and the amount left were recorded and the diet intake was calculated by determining the difference.
The female db/db mice were grouped according to body weight, blood sugar level and triglceride concentration in blood. […] The blood sugar value, triglyceride concentration in plasma and insulin concentration in plasma were measured at day 0 and day 14, and blood sugar value and triglyceride concentration in blood were measured at day 7. Body weight was measured at day 0, day 7 and day 14. […]
Blood sugar value was measured using 10-15 μl of plasma and in accord with glucose oxidase method glucose CII-test Waco, Waco Pure Chemicals Co., Ltd.). […] The insulin concentration in plasma was measured using 20 μl of plasma (preservable at −20° C.) and in accord with an antibody method (Phadesef Insulin RIA kit, Kabi Pharmacia). […]

`CCCCCS(=O)(=O)NC(=O)c1ccc2oc(C)c(Cc3ccc(Cl)cc3Cl)c2c1` [Compound A, 3-(2,4-Dichlorobenzyl)-2-methyl-5-(1-n-pentanesulfonylcarbamoyl)-benzo[b]furan] was tested, and the “Blood sugar decrease (%)” value was 71%.

Source: US6911469B2, “Sulfonamide compounds and pharmaceutical use thereof” (Fujisawa Pharmaceutical Co., Ltd., priority 1997, dated 2005)
